Measurements reported in patent US20240425529A1, “BORIC ACID DERIVATIVE” (SHOUYAO HOLDINGS (BEIJING) CO., LTD., priority 2021, published 2024).

Key:
[1] = target: T1, LMP7 (Homo sapiens, UniProt P28062); assay: Enzymatic inhibitory activity on LMP7 (MOLT-4 cell lysate, Ac-ANW-AMC substrate); type: biochemical; conditions: 1 hour pre-incubation
T1 construct: using MOLT-4 cell lysate as the enzyme source of LMP7; endogenous in cells; host or cells: MOLT-4 (human acute lymphoblastic leukemia cells)
Description: LMP7 is a catalytic subunit of immunoproteasomes. In this experiment, an enzymatic detection platform was established using its hydrolytic enzyme activity and used for compound activity detection. Using Ac-ANW-AMC (Bonston Biochem, Cat #S-320) as a substrate for LMP7, the amount of fluorescent group AMC (7-amino-4-methylcoumarin) released after hydrolysis can reflect the enzymatic activity. MOLT-4 cells are human acute lymphoblastic leukemia cells and have been identified as cells with high expression of LMP7. We established an enzymatic detection method for compound inhibition on LMP7 using MOLT-4 cell lysate as the enzyme source of LMP7 and detected the compound inhibitory activity (half inhibitory concentration, IC50).
(§1) MOLT-4 cells were cultured in a 75 cm^2 cell culture flask (Corning) (37° C., 95% air, and 5% CO2) with RPMI-1640 (Biological Industries) medium containing 10% fetal bovine serum (Biological Industries) and 1% Pen Strep (Gibco) and passaged 2-3 times one week. 1×10^7 MOLT-4 cells were collected, resuspended in 1 ml of PBS (Solarbio), and centrifuged at 3000 rpm for 5 minutes. The supernatant was aspirated off. The cells were resuspended in 500 μl of lysis buffer (20 mM Tris, pH 8.0, 5 mM EDTA, plus Protease inhibitor (1:1000) and Phosphatase Inhibitor (1:100) when used) and left on ice for 30 minutes. The cells were broken by supersonic technique, 0.5 S on, 0.5 S off, for 2.5 S. The centrifuge was performed at 12000 rpm, 4° C. for 10 minutes. The supernatant was the cell lysate and protein quantification was performed by using the BCA method (Thermo, #23225).
Compounds were diluted in a 5-fold gradient with 100% DMSO for a total of 9 concentrations: 2 W for each concentration was added to a 48-μl reaction buffer (20 mM Tris, pH 8.0, 0.5 mM EDTA) and mixed well as 4* compound (final concentrations: 2000, 400, 80, 16, 3.2, 0.64, 0.128, 0.0256, and 0 nM) for later use. A reaction buffer was used to prepare 4* MOLT-4 cell lysate at a final concentration of 20 ng/μl and 2*Ac-ANW-AMC at a final concentration of 100 µM. 5 μl of 4* compound was added to a 384-well plate (OptiPlate-384, purchased from PerkinElmer), added with 5 W of 4* cell lysate, centrifuged, and reacted in an incubator at 23° C. for 1 hour. 10 W of 2* Ac-ANW-AMC was added and the reaction was started by centrifugation at 23° C. in the dark for 2 hours. After completion of the reaction, the signal value (excitation wavelength 345 nm/emission wavelength 445 nm) was read on the CLARIO star^Plus (purchased from BMG LRBTECH). Enzyme activity was determined at 9 concentrations for each compound, and data were processed using the GraphPad Prism software to calculate the half inhibitory concentration of the compound on LMP7, i.e. the IC50 value.

[2] = target: T2, β5 (Homo sapiens, UniProt P28074); assay: Enzymatic inhibitory activity on β5 (HEK-293 cell lysate, Ac-WLA-AMC substrate); type: biochemical; conditions: 1 hour pre-incubation
T2 construct: using HEK-293 cell lysate as the enzyme source of D5; endogenous in cells; host or cells: HEK-293 (human embryonic kidney cells)
Description: β5 is a catalytic subunit of immunoproteasomes. In this experiment, an enzymatic detection platform was established using its hydrolytic enzyme activity and used for compound activity detection. Using Ac-WLA-AMC (Bonston Biochem, Cat #5-330) as a substrate for D5, the amount of fluorescent group AMC (7-amino-4-methylcoumarin) released after hydrolysis can reflect the enzymatic activity. […] We established an enzymatic detection method for compound inhibition on D5 using HEK-293 cell lysate as the enzyme source of D5 and detected the compound inhibitory activity (half inhibitory concentration, IC50). The enzymatic inhibitory activity of compounds against D5 was used as a measure index of compound selectivity.
as §1, with “HEK-293” for “MOLT-4”, “DMEM” for “RPMI-1640”, “performed” for “performed by”
Compounds were diluted in a 5-fold gradient with 100% DMSO for a total of 9 concentrations. 2 W for each concentration was added to a 48-μl reaction buffer (20 mM Tris, pH 8.0, 0.5 mM EDTA) and mixed well as 4* compound (final concentrations: 100000, 20000, 4000, 800, 160, 32, 6.4, 1.28, and 0 nM) for later use. A reaction buffer was used to prepare 4*HEK-293 cell lysate at a final concentration of 25 ng/μl and 2*Ac-WLA-AMC at a final concentration of 20 μM. 5 W of 4* compound was added to a 384-well plate (OptiPlate-384, purchased from PerkinElmer), added with 5 W of 4*HEK-293 cell lysate, centrifuged, and reacted in an incubator at 23° C. for 1 hour. 10 W of 2* Ac-WLA-AMC was added and the reaction was started by centrifugation at 23° C. in the dark for 2 hours. After completion of the reaction, the signal value (excitation wavelength 345 nm/emission wavelength 445 nm) was read on the CLARIO star^Plus (purchased from BMG LRBTECH). Enzyme activity was determined at 9 concentrations for each compound, and data were processed using the GraphPad Prism software to calculate the half inhibitory concentration of the compound on D5, i.e. the IC50 value.

[3] = target: T1, LMP7; assay: Cytological inhibitory activity on LMP7 in MOLT-4 cells; type: cell-based; conditions: incubation for 2 hours with compound, read-out: Cytological activity data LMP7 Activity (MOLT-4Cell)
Protocol: MOLT-4 are human acute lymphoblastic leukemia cells and have been identified as cells with high expression of LMP7. In this experiment, the compounds were pre-incubated with MOLT-4, and Ac-ANW-AMC (BonstonBiochem, Cat #S-320) was used as the substrate of LMP7 to establish the detection method for the enzymatic activity of LMP7 in cells and detect the compound inhibitory activity (half inhibitory concentration, IC50).
Cells were plated in a 24-well plate (Corning) at a concentration of 1.5×10^5/ml per well. The next day compounds were prepared and diluted in a 5-fold gradient from 2 mM in 100% DMSO for a total of 8 concentrations. 2 μl for each concentration of the compound was added to a 1-ml cell culture medium, supplemented with 1 ml of RPMI-1640 only (final FBS concentration 5%, v/v). The compounds were mixed with the cells. After incubation for 2 hours in the incubator, the cells were centrifuged at 2000 rpm for 8 minutes to discard the supernatant. The cells were washed once with 2 ml PBS (Solarbio), and centrifuged again to discard the supernatant. The cells were resuspended in 100 μl of lysis buffer (20 mM Tris, pH 8.0, 5 mM EDTA, plus Protease inhibitor (1: 100) and Phosphatase Inhibitor (1:100) when used) and left in a 4° C. refrigerator for 45 minutes.
After 2 min. of centrifuge at 2000 rpm, the lysate was transferred from the 24-well plate to a 96-well plate, and centrifuged at 2000 rpm, 4° C., for 15 min. The supernatant was the lysate. Protein quantification was performed using the BCA method (Thermo, #23225). A 2* lysate was prepared with the reaction buffer (20 mM Tris, pH 8.0, 0.5 mM EDTA) at a final concentration of 20 ng/μl. 2* Ac-ANW-AMC was prepared with the reaction buffer at a final concentration of 100 μM. 10 µl of 2* lysate was added to a 384-well plate (OptiPlate-384, purchased from PerkinElmer), and added with 10 W of 2* Ac-ANW-AMC. The reaction was started by centrifugation at 23° C. in the dark for 1 hour. After completion of the reaction, the signal value (excitation wavelength 345 nm/emission wavelength 445 nm) was read on the CLARIO starPlus (purchased from BMG LRBTECH). Enzyme activity was determined at 8 concentrations for each compound, and data were processed using the GraphPad Prism software to calculate the half inhibitory concentration of the compound on LMP7 hydrolase in MOLT-4 cells, i.e. the IC50 value.

IC50 [1] [nM] | IC50 [2] [nM] | IC50 [3] [nM] | Structure (SMILES)
1.99 | 38.4 | 13.6 | CC1(C)[C@@H]2C[C@H]3OB([C@H](Cc4coc5ccccc45)NC(=O)C(=O)Nc4ncc(Cl)s4)O[C@@]3(C)[C@H]1C2 [Ex. 35, (R)-(2-(benzofuran-3-yl)-1-(2-oxo-2-((5-chlorothiazol-2-yl)amino)acetamido)ethyl)boronic acid (1S,2S,3R,5S)-(+)-pinane-2,3-diol ester]
5.93 | 264 | 111 | Cn1ccnc1NC(=O)C(=O)N[C@@H](Cc1coc2ccccc12)B(O)O [Ex. 37, (R)-(2-(benzofuran-3-yl)-1-(2-oxo-2-((1-methyl-1H-imidazol-2-yl)amino)acetamido)ethyl)boronic acid]
5.95 | 392 | 3.51 | O=C(N[C@@H](Cc1coc2ccccc12)B(O)O)C(=O)N1C2CCC1COC2 [Ex. 39, (R)-(2-(benzofuran-3-yl)-1-(2-oxo-2-(3-oxa-8-azabicyclo[3.2.1]octan-8-yl)acetamido)ethyl)boronic acid]
4.91 | 54.2 | 15.9 | O=C(N[C@@H]1CCOC1)C(=O)N[C@@H](Cc1coc2ccccc12)B(O)O [Ex. 44, ((R)-2-(benzofuran-3-yl)-1-(2-oxo-2(((R)-tetrahydrofuran-3-yl)amino)acetamido)ethyl) boronic acid]
7.83 | 93.8 | 2.29 | Cc1cnc(NC(=O)C(=O)N[C@@H](Cc2coc3ccccc23)B(O)O)cn1 [Ex. 46, (R)-(2-(benzofuran-3-yl)-1-(2-oxo-2-((5-methylpyrazin-2-yl)amino)acetamido)ethyl)boronic acid]
3.08 | 74.6 | 3.88 | CC1(C)[C@@H]2C[C@H]3OB([C@H](Cc4coc5ccccc45)NC(=O)C(=O)N[C@@H]4C[C@H]5CC[C@@H]4O5)O[C@@]3(C)[C@H]1C2 [Ex. 51, ((R)-1-(2-(((1S,2R,4R)-7-oxabicyclo[2.2.1]heptan-2-yl)amino)-2-oxoacetamido)-2-(benzofuran-3-yl)ethyl)boronic acid (1S,2S,3R,5S)-(+)-pinane-2,3-diol ester]
1.61 | 32.4 | 4.94 | CC1(C)[C@@H]2C[C@H]3OB([C@H](Cc4coc5ccccc45)NC(=O)C(=O)Nc4ccccc4F)O[C@@]3(C)[C@H]1C2 [Ex. 52, (R)-(2-(benzofuran-3-yl)-1-(2-oxo-2-(2-fluorophenylamino)acetamido)ethyl) boronic acid (1S,2S,3R,5S)-(+)-pinane-2,3-diol ester]

Further lines, the molecule ahead of its results:

Structure (SMILES) | IC50 [1] [nM] | IC50 [2] [nM] | IC50 [3] [nM]
O=C(Nc1ncc(Cl)s1)C(=O)N[C@@H](Cc1coc2ccccc12)B(O)O [Ex. 36, (R)-(2-(benzofuran-3-yl)-1-(2-oxo-2-((5-chlorothiazol-2-yl)amino)acetamido)ethyl)boronic acid] | 3.14 | 54.5 | 19.5
COc1ncccc1NC(=O)C(=O)N[C@@H](Cc1coc2ccccc12)B(O)O [Ex. 45, (R)-(2-(benzofuran-3-yl)-1-(2-oxo-2-((2-methoxypyridin-3-yl)amino)acetamido)ethyl)boronic acid] | 5.32 | 97.7 | 22.7
O=C(Nc1cnc2ccccc2n1)C(=O)N[C@@H](Cc1coc2ccccc12)B(O)O [Ex. 47, (R)-(2-(benzofuran-3-yl)-1-(2-oxo-2-(quinoxalin-2-ylamino)acetamido)ethyl) boronic acid] | 3.1 | 43.5 | 2.32
O=C(Nc1cncnc1)C(=O)N[C@@H](Cc1coc2ccccc12)B(O)O [Ex. 48, (R)-(2-(benzofuran-3-yl)-1-(2-oxo-2-(pyrimidin-5-ylamino)acetamido)ethyl) boronic acid] | 4.58 | 22.5 | 11.1
CN(C)c1ccnc(NC(=O)C(=O)N[C@@H](Cc2coc3ccccc23)B(O)O)c1 [Ex. 50, (R)-(2-(benzofuran-3-yl)-1-(2-oxo-2-((4-dimethylaminopyridin-2-yl)amino)acetamido)ethyl)boronic acid] | 5.96 | 357 | 7.91
